According to patent publication US20100286131A1, “VIRAL POLYMERASE INHIBITORS” (BOEHRINGER INGELHEIM INTERNATIONAL GMBH, priority 2007, published 2010):

Experiments:
[1] = test system: cells expressing a stable subgenomic HCV replicon; test: Cell-based luciferase reporter HCV RNA replication assay; conditions: Hepatitis C virus, inhibition of HCV RNA replication, assay of WO 2005/028501
Method: Cell-Based Luciferase Reporter HCV RNA Replication Assay
Compounds of the invention are tested for activity as inhibitors of hepatitis C virus RNA replication in cells expressing a stable subgenomic HCV replicon, using the assay described in WO 2005/028501, herein incorporated by reference. Table 4 lists representative compounds of the invention with their EC50 values and a comparative non-fluorinated analog wherein the presence of the fluorine atom provided an unexpected improvement in cell-based potency.

[2] = In vitro metabolism in male human liver microsomes (HLM); assay type: in vitro ADME; conditions: 1 mg microsomal protein, 2.5 mM NADPH, 2 μM compound, pH 7.4, 37° C.
Method: Male human liver microsomes are purchased from Gentest. The pool consisted of microsomes from several donors. The in vitro metabolism in liver microsomes is carried out in a reaction media containing 1 mg of microsomal protein, 2.5 mM NADPH and 2 μM compound in a total volume of 1 ml of 0.066 M Tris buffer, pH 7.4 for 20 minutes at 37° C. Reactions are initiated by the addition of NADPH and terminated at the appropriate times by quenching with an equal volume of a 1:1 mixture of acetonitrile:methanol.

Molecule `Cc1ccc(OCc2cnc(Oc3ccc(N(C(=O)[C@H]4CC[C@H](C)CC4)C(C)C)c(C(=O)O)c3)c(C(F)(F)F)c2)c(C)n1` has an EC50 [1] of 86.5 nM.

With `CC(C)N(c1ccc(Cc2ccc(Cn3cccc4ccnc3-4)cc2C(F)(F)F)cc1C(=O)O)C(=O)[C@H]1CC[C@H](C)CC1` the EC50 [1] was 208 nM.

Work on `CC(C)N(c1ccc(Oc2ncc(Cn3cnnc3)cc2C(F)(F)F)cc1C(=O)O)C(=O)[C@H]1CC[C@H](C)CC1` yielded an EC50 [1] of 160 nM.

`CC(C)N(c1ccc(Oc2ncc(CN3CCC(F)(F)C3)cc2C(F)(F)F)cc1C(=O)O)C(=O)[C@H]1CC[C@H](C)CC1` gave an EC50 [1] of 89 nM.

With `CC(C)N(c1ccc(Oc2ccc(Cn3ccc4cccnc43)cc2C(F)(F)F)cc1C(=O)O)C(=O)[C@H]1CC[C@H](C)CC1` the EC50 [1] was 265 nM.

`CC(C)N(c1ccc(Oc2ncccc2C(F)(F)F)cc1C(=O)O)C(=O)[C@H]1CC[C@H](C)CC1` showed an HLM [2] of 69 min.

In the case of `Cc1nc(Cc2ccc(Oc3ccc(N(C(=O)[C@H]4CC[C@H](C)CC4)C(C)C)c(C(=O)O)c3)c(C(F)(F)F)c2)cs1`, the HLM [2] is reported as 29 min.

`CC(C)N(c1cc(F)c(Oc2ncccc2C(F)(F)F)cc1C(=O)O)C(=O)[C@H]1CC[C@H](C)CC1` [Compound 1011] gave an HLM [2] of 136 min.

Molecule `CC(C)N(c1cc(F)c(Oc2ncc(Cn3cnnc3)cc2C(F)(F)F)cc1C(=O)O)C(=O)[C@H]1CC[C@H](C)CC1` [Compound 1042] has an EC50 [1] of 47 nM.

Work on `Cc1ccc(OCc2cnc(Oc3cc(C(=O)O)c(N(C(=O)[C@H]4CC[C@H](C)CC4)C(C)C)cc3F)c(C(F)(F)F)c2)c(C)n1` [Compound 1058] yielded an EC50 [1] of 39.5 nM.

Work on `Cc1nc(Cc2cnc(Oc3cc(C(=O)O)c(N(C(=O)[C@H]4CC[C@H](C)CC4)C(C)C)cc3F)c(C(F)(F)F)c2)cs1` [Compound 1072] yielded an HLM [2] of 129 min.

Work on `CC(C)N(c1cc(F)c(Oc2ncc(CN3CCC(F)(F)C3)cc2C(F)(F)F)cc1C(=O)O)C(=O)[C@H]1CC[C@H](C)CC1` [Compound 1101] yielded an EC50 [1] of 41.5 nM.

Work on `CC(C)N(c1cc(F)c(Oc2ccc(Cn3cccc4ccnc3-4)cc2C(F)(F)F)cc1C(=O)O)C(=O)[C@H]1CC[C@H](C)CC1` [Compound 3016] yielded an EC50 [1] of 72.5 nM.

In the case of `CC(C)N(c1cc(F)c(Oc2ccc(Cn3ccc4cccnc43)cc2C(F)(F)F)cc1C(=O)O)C(=O)[C@H]1CC[C@H](C)CC1` [Compound 3033], the EC50 [1] is reported as 145 nM.
